From patent publication US20120263719A1, “COMPOSITIONS AND METHODS FOR TREATING ASPERGILLOSIS” (priority 2009, published 2012) come the findings set out here.

Values after ≈ are worked out from the molar mass of the structure shown. Where two headings read alike, the source gives them in different places.

The subject of one assay is AF-infected mice. Put plainly: Animal survival experiment in AF-infected immunosuppressed mice (36 days). The format is in vivo. The following applies: group 8: 1 mg/kg i.t.
In the next assay the test system is Aspergillus fumigatus. Nature of the assay: In vitro antifungal activity (NCCLS M27-A; MIC/MFC, hyphal growth). The format is cell-based. The settings on record: for MFC: Aspergillus fumigatus. Here is the method: The antifungal activity of mAb (MPS5.44)-alliinase conjugates was determined according to the conditions of National Committee for Clinical Laboratory Standards (NCCLS) document M27-A. Resting conidia (3×10^4 conidia/well) were seeded in 96-well plates and incubated for 4 hours at 37° C. with RPMI/MOPS (100 μl). mAb-alliinase conjugate was applied in serial 2-fold dilutions, in triplicates and incubated for 30 min at 37° C., then washed four times followed by the addition of alliin (0.5 mg/ml). Hyphal growth was monitored by microscopic observation as well as by optical density (OD595), or by fluorescence of the strain CBS/DsRed (excitation at 540 nm, emission at 595 nm). The MIC of the conjugate was determined after 72 hours. The wells in which no fungal germination was detected, were scraped and plated on Sabouraud plates and the number of colonies was counted after 72 hours to determine the MFC. As a control, the antifungal activity was also determined by incubating AF as above with non-conjugated alliinase or with conjugates consisting of the non-specific mAb and alliinase.

Description for AF-infected mice: Eight week-old ICR female mice of body weight 25-28 grams, were maintained under specific pathogen-free conditions and handled under protocols approved by the Weizmann Institute Animal care Committee according to International guidelines. […] Briefly, cortisone (25 mg in 200 μl PBS) was injected i.p. on days 0 and 3. Before infection, mice were anesthetized with isoflurane, and 10^7 DsRed conidia in 50 μl PBS were inoculated intra-nasally on day 0.
Animals infected as above were divided into groups (n=15):
G-1: control group (placebo) were administered i.t. with PBS (50 μl) one hour after infection, followed by (30 minutes later) the i.t. administration of PBS (25 μl); G-2: control group (placebo) were administered i.t. with PBS (50 μl) one hour after infection, followed by (30 minutes later) the i.t. administration of alliin (750 μg in 25 μl PBS). G-3: were administered i.t. with unconjugated mAb MPS 5.44 (50 nmol/50 μl) one hour after infection, followed by (30 minutes later) the i.t. administration of PBS (250); G-4: were administered i.t. with mAb-alliinase conjugate (50 nmol in 50 μl PBS) one hour after infection, followed by (30 minutes later) the i.t. administration of PBS (25 μl); […]
Statistical Analysis: Survival data were analyzed by the Kaplan-Meier method using GraphPad Prism 5 software (GraphPad Inc.). Differences in survival curves were assessed by the log-rank test.

Consider `C[C@@H]1[C@H](O)[C@@H](C)/C=C/C=C/C=C/C=C/C=C/C=C/C=C/[C@H](O[C@@H]2O[C@H](C)[C@@H](O)[C@H](N)[C@@H]2O)C[C@@H]2O[C@](O)(C[C@@H](O)C[C@@H](O)[C@H](O)CC[C@@H](O)C[C@@H](O)CC(=O)O[C@H]1C)C[C@H](O)[C@H]2C(=O)O` [Amphotericin B], for which the MST in the assay with AF-infected mice (n=10) is 18 days. The “survival at the end of the experiment” value in the assay with AF-infected mice (n=10, 36 d) is listed as 30%.
Regarding `C=CCS[S+]([O-])CC=C` (stereo not drawn) [allicin, diallyl-dithiosulfinate], the MFC with Aspergillus fumigatus (read-out: MFC, resting conidia) was determined as 15 µg/mL (≈ 92.4 µM); in the assay with Aspergillus fumigatus (read-out: MFC, swollen conidia), 7.5 µg/mL (≈ 46.2 µM); in the assay with Aspergillus fumigatus (pure allicin, data not shown, read-out: MFC, hyphae), 30 µg/mL (≈ 185 µM).
For the compound (+)S-Allyl-cysteine sulfoxide [alliin], in the assay with Aspergillus fumigatus (alliin without conjugate, or conjugate without alliin), the “growth of Aspergillus cells treated with one component only” value is listed as “not inhibited in their growth”.

In general, MFC refers to the smallest concentration meeting the test's criterion for killing the fungus.
